In assay [1] the test system is 3×AD Tg mice. As to the kind of experiment: Probe test (platform removed, time in target quadrant). Format: in vivo. The following applies: 60 seconds swim, dietary supplement. An excerpt: (§1) Fisetin, a natural flavonoid enriched in strawberries, is neuroprotective and can improve cognitive function in various animal models including aging mice and beta amyloid plaque accumulating transgenic mice. We have tested 0.6% DHA alone, 500 ppm fisetin alone and DHA+fisetin in combination delivered as a food supplement (in chow) to older 3×AD Tg mice with combined amyloid and tau pathology. The study ran from ˜9 months to 13-14 months of age.
FIG. 2. […] In this test the platform is removed, and the mice are allowed to swim for 60 seconds, while the time in the target quadrant is quantified.

Assay [2] deals with 3×AD Tg mice. As to the kind of experiment: Morris Water Maze, hidden platform, diet supplement study. Format: in vivo.
Excerpt: as §1

Take `O=c1c(O)c(-c2ccc(O)c(O)c2)oc2cc(O)ccc12` [fisetin, 2-(3,4-dihydroxyphenyl)-3,7-dihydroxy-4H-chromen-4-one]: the “retention in the probe test (time in the target quadrant)” value in assay [1] was “also improved retention”. For the same molecule, the Cognitive deficits result in assay [2] (0.6% DHA, 500 ppm fisetin, alone or combined, in chow, older 3×AD Tg mice, ~9 to 13-14 months of age) is “not by DHA alone or fisetin alone”. Moreover, the “time (latency) to find a hidden platform with additional blocks of training” value in assay [2] (12-13 month old 3×AD Tg mice on control bad (high safflower oil) diet) is on record as “no improvement”.

The record behind these values is patent publication US9254280B2, “Medical food for cognitive decline” (The Regents of the University of California, priority 2011, dated 2016).
